For assay [1], the target named is T1, Tyrosine-protein phosphatase non-receptor type 1 (Homo sapiens, UniProt P18031).
T1 sequence (P18031 whole entry): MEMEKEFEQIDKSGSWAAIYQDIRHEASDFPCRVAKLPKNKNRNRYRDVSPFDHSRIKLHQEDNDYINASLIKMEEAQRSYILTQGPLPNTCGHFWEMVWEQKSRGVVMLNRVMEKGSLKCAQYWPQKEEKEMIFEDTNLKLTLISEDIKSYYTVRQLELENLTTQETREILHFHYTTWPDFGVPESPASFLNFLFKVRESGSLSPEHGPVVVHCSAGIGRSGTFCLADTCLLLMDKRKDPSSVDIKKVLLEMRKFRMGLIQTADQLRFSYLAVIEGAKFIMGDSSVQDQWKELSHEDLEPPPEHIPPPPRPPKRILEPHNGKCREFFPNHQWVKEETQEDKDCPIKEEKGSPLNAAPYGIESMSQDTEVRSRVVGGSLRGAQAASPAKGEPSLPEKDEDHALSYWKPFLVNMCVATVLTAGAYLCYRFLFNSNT
In words: Inhibition of recombinant human PTP1B (1 to 322 residues) expressed in Escherichia coli using P-NPP as substrate after 10 mins by Dixon plot analysis.

The target of assay [2] is T2, Alpha glucosidase (Homo sapiens, UniProt O43451+P10253+P14410+Q2M2H8). In words: Mixed type inhibition of alpha-glucosidase (unknown origin) using PNP-G as substrate by Lineweaver-Burk plot analysis. The format is protein assay.
The target of assay [3] is T3, Tyrosine-protein phosphatase non-receptor type 1 (Homo sapiens) (UniProt P18031).
T3 sequence (whole entry): T1 sequence (P18031 whole entry)
In words: Competitive inhibition of recombinant human PTP1B (1 to 322 residues) expressed in Escherichia coli using P-NPP as substrate after 10 mins by Lineweaver-Burk plot analysis.

Assay [4] addresses T2, Alpha glucosidase. In words: Inhibition of alpha-glucosidase (unknown origin) using PNP-G as substrate measured for 15 mins by spectrophotometry. The assay is classed as protein assay.
Assay [5] has as its target T2, Alpha glucosidase. In words: Inhibition of alpha-glucosidase (unknown origin) using PNP-G as substrate by Dixon plot analysis. The assay is classed as protein assay.
For assay [6], the target named is T1, Tyrosine-protein phosphatase non-receptor type 1. The experiment in a line: Inhibition of recombinant human PTP1B (1 to 322 residues) expressed in Escherichia coli using P-NPP as substrate after 10 mins by spectrophotometry.
Assay [7] concerns the target T3, Tyrosine-protein phosphatase non-receptor type 1 (Homo sapiens). In words: Reversible inhibition of recombinant human PTP1B (1 to 322 residues) expressed in Escherichia coli using P-NPP as substrate after 10 mins by spectrophotometry.
The target is the same in assay [8]. The experiment in a line: Inhibition of recombinant human PTP1B (1 to 322 residues) expressed in Escherichia coli assessed as forward rate constant for enzyme-inhibitor bound conformation using P-NPP as substrate incubated with enzyme for 30 mins by UV-spectrophotometric method.
The target in assay [9] is T1, Tyrosine-protein phosphatase non-receptor type 1. In words: Time dependent inhibition of recombinant human PTP1B (1 to 322 residues) expressed in Escherichia coli using P-NPP as substrate preincubated with enzyme for 30 mins by UV-spectrophotometric method. To be noted: read-out: Ki(app).
Assay [10] has as its target T2, Alpha glucosidase. The experiment in a line: Reversible inhibition of alpha-glucosidase (unknown origin) using PNP-G as substrate measured for 15 mins by spectrophotometry. The format is protein assay.
For assay [11], the target named is T2, Alpha glucosidase. The experiment in a line: Mixed type inhibition of alpha-glucosidase (unknown origin) assessed as enzyme-substrate-inhibitor complex formation using PNP-G as substrate by Lineweaver-Burk plot analysis. The assay is classed as protein assay.

Molecules are shown by their SMILES. Calls of active or inactive are those of the source. No cut-off for these calls is given here.

Turning to `C=C(CCC=C(C)C)C(O)Cc1c(O)c(CC=C(C)C)c(O)c2c(=O)c3cc(O)ccc3oc12` (configuration not stated), the Ki in assay [1] came out at 8.9 µM; in [5] it was 8.2 µM. For the same compound, in assay [2], the “Mixed-type inhibition (qualitative)” value was “Active”. Moreover, the “inhibition type (Lineweaver-Burk)” value in assay [3] is “Active”. Further, the half-maximal inhibitory concentration (IC50) (as a rule, the midpoint of a concentration-inhibition curve) in [4] was 10.1 µM; in [6], 12.5 µM.
Consider `COc1c(O)cc2oc3cc(O)c(CC=C(C)C)c(O)c3c(=O)c2c1CC=C(C)C` [MANGOSTIN], for which the Ki is 3.2 µM in assay [1] and 7.3 µM in assay [5]. The “Mixed-type inhibition (qualitative)” value in assay [2] is “Active”. Besides, the “inhibition type (Lineweaver-Burk)” value in assay [3] was “Active”. Also, the values for the IC50 in [4] and in [6] were 5.7 µM and 5.5 µM, respectively.
For `CC(C)=CCC/C(C)=C/COc1ccc2oc3cc(O)cc(O)c3c(=O)c2c1`, the results for the Ki in [1] and in [5] were 19.9 µM and 17.7 µM, respectively. The “Mixed-type inhibition (qualitative)” value in assay [2] is “Active”. Further, the “inhibition type (Lineweaver-Burk)” value in [3] was “Active”. The IC50 in [4] worked out at 20.6 µM; in [6], 35.1 µM.
`COc1c(O)ccc2c(=O)c3c(O)cc4c(c3oc12)C(C)(C)C(CO)O4` (configuration not stated): the Ki is 32.7 µM in assay [1] and 33.9 µM in assay [5]. In addition, the “Mixed-type inhibition (qualitative)” value in assay [2] is “Active”. Further, the “inhibition type (Lineweaver-Burk)” value in [3] was “Active”. The IC50 in assay [4] turned out to be 72.7 µM; in assay [6] it was 52.5 µM.
Take `C=C(C)C(O)CC/C(C)=C/COc1ccc2oc3cc(O)cc(O)c3c(=O)c2c1` (configuration not stated): the Ki in assay [1] is 29.5 µM; in assay [5], 13 µM. The “Mixed-type inhibition (qualitative)” value in assay [2] was “Active”. The “inhibition type (Lineweaver-Burk)” value in assay [3] was “Active”. The IC50 amounted to 13.7 µM in [4] and 25.2 µM in [6].
Regarding `CC(C)=CCc1c(O)c(CC=C(C)C)c2oc3ccc(O)cc3c(=O)c2c1O`, the Ki was 11.1 µM in assay [1] and 19.2 µM in assay [5]. Further, in assay [2], the “Mixed-type inhibition (qualitative)” value is “Active”. Moreover, the “inhibition type (Lineweaver-Burk)” value in assay [3] was “Active”. The 50% inhibitory concentration (IC50) in [4] came to 25.5 µM; in [6], 10.5 µM.
Regarding `CC(C)=CCc1c(O)cc2oc3cc(O)c(O)c(CC=C(C)C)c3c(=O)c2c1O`, the Ki in assay [1] stood at 2.7 µM; in [5], 1.4 µM. Further, the inhibition result in assay [2] was “Active”. Further, the “inhibition type (Lineweaver-Burk)” value in assay [3] is “Active”. In addition, the IC50 in assay [4] worked out at 1.7 µM; in assay [6], 2.8 µM.
Consider `COc1c(O)cc2oc3cc(O)c(CCC(C)(C)O)c(O)c3c(=O)c2c1CC=C(C)C`, for which the values for the Ki in [1] and in assay [5] were 22.9 µM and 25.1 µM, respectively. In addition, in assay [2], the “Mixed-type inhibition (qualitative)” value was “Active”. The “inhibition type (Lineweaver-Burk)” value in assay [3] was “Active”. Also, the IC50 in assay [4] stood at 30.7 µM; in assay [6], 24.1 µM.
`CC(C)=CCC/C(C)=C/COc1cc2oc3ccc(O)cc3c(=O)c2c(O)c1CC=C(C)C`: the Ki in assay [1] stood at 5.1 µM; in assay [5], 27.2 µM. For the same compound, the “Mixed-type inhibition (qualitative)” value in assay [2] is “Active”. Further, in [3], the “inhibition type (Lineweaver-Burk)” value is “Active”. Moreover, the figures for the IC50 in assay [4] and in [6] were 28.4 µM and 7.05 µM, respectively.
As for `CC(C)=CCCC(C)(O)C1Cc2c(c(CC=C(C)C)c(O)c3c(=O)c4cc(O)ccc4oc23)O1` (configuration not stated), the Ki came out at 3.4 µM in assay [1] and 9.9 µM in [5]. For the same compound, in [2], the “Mixed-type inhibition (qualitative)” value is “Active”. Moreover, in assay [3], the “inhibition type (Lineweaver-Burk)” value was “Active”. In addition, the IC50 in assay [4] turned out to be 16.1 µM; in [6] it was 7.2 µM.
On to `CC(C)=CCC/C(C)=C/Cc1c(O)c(CC=C(C)C)c(O)c2c(=O)c3cc(O)ccc3oc12` [COCHINCHINONE A], for which the results for the Ki in assay [1] and in assay [5] were 3.1 µM and 13.4 µM, respectively. Besides, the “Mixed-type inhibition (qualitative)” value in [2] is “Active”. Further, the “inhibition type (Lineweaver-Burk)” value in assay [3] was “Active”. The results for the IC50 in assay [4] and in assay [6] were 17.4 µM and 5.2 µM, respectively.
Take `C=C(C)C(O)Cc1c(O)c(C/C=C(\C)CCC=C(C)C)c2oc3ccc(O)cc3c(=O)c2c1O` (configuration not stated): the inhibition entry in [7] and in [10] was “Active” in each case. Further, in assay [8], the K turned out to be 50000 M⁻¹ s⁻¹. For the same compound, the Ki in assay [1] was 2.1 to 2.4 µM; in assay [9] it was 2.4 µM; in assay [5], 4.2 µM; in [11], 6.6 µM. Further, in [2], the “Mixed-type inhibition (qualitative)” value was “Active”. Besides, the “inhibition type (Lineweaver-Burk)” value in [3] is “Active”. Moreover, the IC50 in [4] was determined as 4.8 µM; in assay [6], 2.4 µM.

The record behind these values is ChEMBL document CHEMBL4184201, “Inhibition of protein tyrosine phosphatase 1B (PTP1B) and α-glucosidase by xanthones from Cratoxylum cochinchinense, and their kinetic characterization” (Bioorg Med Chem, 2018).
